Test results from patent US11696913B2, “Prolonged ectoparasite-controlling agent for animal” (MITSUI CHEMICALS AGRO, INC., priority 2017, dated 2023).

Assays:
Ctenocephalides felis [1] = test: Ctenocephalides felis in-vitro feeding test with fleas (CTECFE oral); details: 48 hours, read-out: insecticidal feeding activity; for pest or weed control at 0.16 ppm: dose 0.16 ppm in citrated cattle blood; for pest or weed control at 0.8 ppm: dose 0.8 ppm in citrated cattle blood; for pest or weed control at 4 ppm: dose 4 ppm in citrated cattle blood; for pest or weed control at 0.032 ppm: dose 0.032 ppm in citrated cattle blood
Outline: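 Scored as percent fleas killed (0–100%) 48 hours after feeding began. Compound, dissolved in DMSO and diluted into citrated cattle blood, was offered via a parafilm membrane to roughly 20 adult male and female C. felis at about 37° C.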

[2] = test system: Rhipicephalus (Boophilus) microplus; test: In vitro injection test with Rhipicephalus (Boophilus) microplus (BOOPMI Inj); details: 168 h, laid fertile eggs after 7 days, read-out: acaricidal activity; for pest or weed control at 32 ng: dose 0.032 μg/animal injected; for pest or weed control at 0.00016 mg: dose 0.16 μg/animal injected; for pest or weed control at 0.0008 mg: dose 0.8 μg/animal injected
Outline: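 Five engorged adult females each get a 1 μl abdominal injection of compound dissolved and diluted in DMSO. Kept 7 days at 28° C./85% rel. hum.; percent activity rates egg laying and egg fertility (0% all fertile, 100% none laid or infertile).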

Rhipicephalus sanguineus = test: In vitro contact test with adult hard ticks (Rhipicephalus sanguineus); details: read-out: acaricidal activity; for pest or weed control at 0.2 µg/cm2, 0.2 µg/cm2: dose 0.2 μg/cm^2, 48 h; for pest or weed control at 1 µg/cm2, 1 µg/cm2: dose 1 μg/cm^2, 48 h; for pest or weed control at 0.04 µg/cm2, 0.04 µg/cm2: dose 0.04 μg/cm^2, 48 h
Outline: (§1)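 Acaricidal activity = % ticks dead or moribund after 48 h contact with acetone-deposited compound on vial walls (e.g., 900 ppm solution → 5 μg/cm^2). Ambient conditions for R. sanguineus, 21° C./85% rel. hum. for other species; heat challenge at 45-50° C. separated climbers from moribund ticks.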

Ixodes ricinus = test: In vitro contact test with adult hard ticks (Ixodes ricinus); details: read-out: acaricidal activity; for pest or weed control at 1 µg/cm2, 1 µg/cm2: dose 1 μg/cm^2, 48 h; for pest or weed control at 5 µg/cm2, 5 µg/cm2: dose 5 μg/cm^2, 48 h; for pest or weed control at 0.2 µg/cm2, 0.2 µg/cm2: dose 0.2 μg/cm^2, 48 h
Outline: as §1

Laodelphax striatellus = test: Insecticidal testing against small brown planthopper; format: in vivo; details: 144 h, concentration 100 ppm, sprayed rice seedlings, after 6 days, read-out: pesticidal rate
Outline: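 Acetone solution of compound at a set concentration sprayed onto rice seedlings, air-dried, then exposed to 10 planthoppers (one group). Held at 25° C; survival rate recorded after 6 days.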

Spodoptera litura = test: Insecticidal testing against common cutworm; format: in vivo; details: foliar, 144 h, concentration 100 ppm, cabbage leaf dip, second-stage larvae, after 6 days, read-out: pesticidal rate
From the text: Insecticidal Testing Against Common Cutworm (Spodoptera litura)

Plutella xylostella = test: Insecticidal testing against diamondback moth; format: in vivo; details: foliar, 144 h, concentration 100 ppm, cabbage leaf dip, third-stage larvae, after 6 days, read-out: pesticidal rate
From the text: Insecticidal Testing Against Diamondback Moth (Plutella xylostella)

Ctenocephalides felis [3] = test: In vitro contact test with fleas; details: read-out: insecticidal activity; for pest or weed control at 0.2 µg/cm2, 0.2 µg/cm2: dose 0.2 μg/cm^2, dead or moribund fleas after 48 h; for pest or weed control at 1 µg/cm2, 1 µg/cm2: dose 1 μg/cm^2, dead or moribund fleas after 48 h; for pest or weed control at 0.04 µg/cm2, 0.04 µg/cm2: dose 0.04 μg/cm^2, dead or moribund fleas after 48 h
Outline: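 Activity is the percentage of fleas dead or moribund at 48 h, judged by immobility or uncoordinated movement after tapping. Tubes were coated by evaporating acetone solutions (900 ppm gives 5 μg/cm^2), then held 5-10 adult fleas of both sexes at room temperature and ambient humidity.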

Dermacentor variabilis = test: In vitro contact test with adult hard ticks (Dermacentor variabilis); details: read-out: acaricidal activity; for pest or weed control at 1 µg/cm2, 1 µg/cm2: dose 1 μg/cm^2, 48 h; for pest or weed control at 0.04 µg/cm2, 0.04 µg/cm2: dose 0.04 μg/cm^2, 48 h; for pest or weed control at 0.2 µg/cm2, 0.2 µg/cm2: dose 0.2 μg/cm^2, 48 h
Outline: as §1

Amblyomma americanum = test: In vitro contact test with hard ticks (Amblyomma americanum nymphs); details: read-out: acaricidal activity; for pest or weed control at 0.2 µg/cm2, 0.2 µg/cm2: dose 0.2 μg/cm^2, 48 h; for pest or weed control at 1 µg/cm2, 1 µg/cm2: dose 1 μg/cm^2, 48 h; for pest or weed control at 0.04 µg/cm2, 0.04 µg/cm2: dose 0.04 μg/cm^2, 48 h
Outline: as §1

SMILES	pest or weed control at 0.16 ppm (Ctenocephalides felis [1])	pest or weed control at 0.8 ppm (Ctenocephalides felis [1])	pest or weed control at 4 ppm (Ctenocephalides felis [1])	pest or weed control at 32 ng [2]	pest or weed control at 0.00016 mg [2]	pest or weed control at 0.0008 mg [2]	pest or weed control at 0.2 µg/cm2, 0.2 µg/cm2 (Rhipicephalus sanguineus)	pest or weed control at 1 µg/cm2, 1 µg/cm2 (Rhipicephalus sanguineus)	pest or weed control at 1 µg/cm2, 1 µg/cm2 (Ixodes ricinus)	pest or weed control at 5 µg/cm2, 5 µg/cm2 (Ixodes ricinus)	pest or weed control at 100 ppm (Laodelphax striatellus)	pest or weed control at 100 ppm (Spodoptera litura)	pest or weed control at 100 ppm (Plutella xylostella)	pest or weed control at 0.2 µg/cm2, 0.2 µg/cm2 (Ctenocephalides felis [3])	pest or weed control at 1 µg/cm2, 1 µg/cm2 (Ctenocephalides felis [3])	pest or weed control at 1 µg/cm2, 1 µg/cm2 (Dermacentor variabilis)	pest or weed control at 0.2 µg/cm2, 0.2 µg/cm2 (Amblyomma americanum)	pest or weed control at 1 µg/cm2, 1 µg/cm2 (Amblyomma americanum)	pest or weed control at 0.2 µg/cm2, 0.2 µg/cm2 (Ixodes ricinus)	pest or weed control at 0.04 µg/cm2, 0.04 µg/cm2 (Ctenocephalides felis [3])	other results
N#Cc1ccc(C(=O)Nc2cccc(C(=O)Nc3c(I)cc(C(F)(C(F)(F)F)C(F)(F)F)cc3C(F)(F)F)c2F)cn1 [Compound 79]	95%	95%	95%	100%	100%	100%	90%	90%	90%	90%	≥ 70%	≥ 70%	≥ 70%	95%	95%	90%	90%	90%			
O=C(Nc1cccc(C(=O)Nc2c(I)cc(C(F)(C(F)(F)F)C(F)(F)F)cc2OC(F)(F)F)c1F)c1ccc(F)c(F)c1 [Compound 97]	95%	95%	95%		100%	100%	90%	90%	90%	90%	≥ 70%	≥ 70%	≥ 70%	95%	95%	90%	90%	90%	90%	95%	pest or weed control at 0.04 µg/cm2, 0.04 µg/cm2 (Dermacentor variabilis): 90%; pest or weed control at 0.2 µg/cm2, 0.2 µg/cm2 (Dermacentor variabilis): 90%
O=C(Nc1cccc(C(=O)Nc2c(Br)cc(C(F)(C(F)(F)F)C(F)(F)F)cc2OC(F)(F)F)c1F)c1ccc(F)c(F)c1 [Compound 101]	95%	95%	95%		100%	100%	90%	90%	90%	90%	≥ 70%	≥ 70%	≥ 70%	95%	95%	90%	90%	90%	90%	95%	pest or weed control at 0.2 µg/cm2, 0.2 µg/cm2 (Dermacentor variabilis): 90%
O=C(Nc1cccc(C(=O)Nc2c(I)cc(C(F)(C(F)(F)F)C(F)(F)C(F)(F)F)cc2C(F)(F)F)c1F)c1ccc(C(F)(F)F)nc1 (stereo not drawn) [Compound 102]	95%	95%	95%	100%	100%	100%	90%	90%		90%	≥ 70%	≥ 70%	≥ 70%	95%	95%	90%	90%	90%			pest or weed control at 0.032 ppm (Ctenocephalides felis [1]): 95%
O=C(Nc1cccc(C(=O)Nc2c(Br)cc(C(F)(C(F)(F)F)C(F)(F)F)cc2OC(F)F)c1F)c1ccc(F)cc1 [Compound 91]	95%	95%	95%	100%	100%	100%	90%	90%	90%	90%	≥ 70%	≥ 70%	≥ 70%	95%	95%	90%	90%	90%	90%	95%	pest or weed control at 0.032 ppm (Ctenocephalides felis [1]): 95%; pest or weed control at 0.04 µg/cm2, 0.04 µg/cm2 (Rhipicephalus sanguineus): 90%; pest or weed control at 0.04 µg/cm2, 0.04 µg/cm2 (Dermacentor variabilis): 90%; pest or weed control at 0.2 µg/cm2, 0.2 µg/cm2 (Dermacentor variabilis): 90%; pest or weed control at 0.04 µg/cm2, 0.04 µg/cm2 (Amblyomma americanum): 90%
O=C(Nc1cccc(C(=O)Nc2c(Br)cc(C(F)(C(F)(F)F)C(F)(F)C(F)(F)F)cc2OC(F)(F)F)c1F)c1ccc(F)cc1 (stereo not drawn) [Compound 95]	95%	95%	95%	100%	100%	100%	90%	90%	90%	90%	≥ 70%	≥ 70%	≥ 70%	95%	95%	90%	90%	90%	90%		pest or weed control at 0.04 µg/cm2, 0.04 µg/cm2 (Rhipicephalus sanguineus): 90%; pest or weed control at 0.04 µg/cm2, 0.04 µg/cm2 (Amblyomma americanum): 90%
